The values below are quoted from earlier work in patent US7618987B2, “Acylated piperidine derivatives as melanocortin 4-receptor agonists” (Merck & Co., Inc., priority 2004, dated 2009).

For series [1] the following is noted: in vivo, po.
In series [2] the test system is males with psychogenic erectile dysfunction.

As to “Ac-Nle-c[Asp-His-DPhe-Arg-Trp-Lys]-NH2 [MT-II]”, the “absorption into the systemic circulation” value in series [1] is “not absorbed into the systemic circulation”. Further, in series [2] (in vivo), the adverse reactions observed result was “nausea, flushing, loss of appetite, stretching, and yawning”; the duration of action entry is listed as “approximately 2.5 hours”; the “time to onset of erection” value is 10 to 20 min. For the same substance, the response rate in series [2] (injected intramuscularly or subcutaneously) is recorded as 75%.
